Values quoted from earlier work in patent US20250339362A1, “SKINCARE SUPPLEMENTS” (Natals, Inc., priority 2024, published 2025).
Like-named read-outs stand apart in the source and are kept apart here.

System: male and female subjects ages 35-64 years
Conditions: 120 mg HA capsule orally once per day, Visioscan

## hyaluronic acid [HA]
Week 8
  facial skin smoothness: Statistical significance compared to placebo: No
Week 12
  facial skin smoothness: Statistical significance compared to placebo: statistically significant reduction in smoothness
